Compound `Cc1nc(-c2oc3c(Cl)cccc3c2-c2ccc(Cl)cc2)cs1` [Example 214, 4-[7-chloro-3-(4-chlorophenyl)benzofuran-2-yl]-2-methylthiazole] has a melting point of 156.4 to 158.4 °C.
`COc1ccc2oc(-c3csc(NC(=O)c4cnoc4C)n3)c(-c3ccc(Cl)cc3)c2c1` [Example 220, 5-methylisoxazole-4-carboxylic acid {4-[3-(4-chlorophenyl)-5-methoxybenzofuran-2-yl]thiazol-2-yl}amide] gave a melting point of 216.8 to 218.7 °C.
In the case of `COc1cc(C(=O)Nc2c(C(C)=O)oc3ccc(Br)cc23)cc(OC)c1OC` [Example 210, N-(2-acetyl-5-bromobenzofuran-3-yl)-3,4,5-trimethoxybenzamide], the melting point is reported as 212 to 212.3 °C.
With `C/C=C/C(=O)Nc1c(C(C)=O)oc2cc(OC)ccc12` [Example 116, (E)-N-(2-acetyl-6-methoxybenzofuran-3-yl)-2-butenamide] the melting point was 153.8 to 155.7 °C.
Work on `O=C(O)CCCOc1cccc2cc(C(Cl)=CC=CC(=O)N3CCOCC3)oc12` (stereo in doubt) [Example 147, (2E,4Z)-4-[2-(1-chloro-5-morpholin-4-yl-5-oxo-penta-1,3-dienyl)benzofuran-7-yloxy]butyric acid] yielded a melting point of 152.5 to 154.8 °C.
In the case of `C/C(=C\C(=O)N1CCOCC1)c1ccc2oc(/C(C)=C/C(=O)O)cc2c1` [Example 136, (E,E)-3-[5-(1-methyl-3-morpholin-4-yl-3-oxopropenyl)benzofuran-2-yl]-2-butenoic acid], the melting point is reported as 202.6 to 204.4 °C.
Compound `COc1ccc2oc(-c3nc(N=CN(C)C)sc3C=O)c(-c3ccc(Cl)cc3)c2c1` [Example 221, N′-{4-[3-(4-chlorophenyl)-5-methoxybenzofuran-2-yl]-5-formylthiazol-2-yl}-N,N-dimethylformamidine] has a melting point of 203.5 to 205 °C.
In the case of `CC(=O)c1cc2c(/C(C)=C/C(=O)N3CCN(Cc4ccccc4)CC3)ccc(OC(c3ccccc3)c3ccccc3)c2o1` [Example 12, (E)-3-(2-acetyl-7-benzhydryloxybenzofuran-4-yl)-1-(4-benzylpiperazin-1-yl)-2-buten-1-one], the melting point is reported as 132.1 to 136.5 °C.
For `COc1ccc2oc(-c3csc(-c4ccccc4)n3)c(-c3ccc(Cl)cc3)c2c1` [Example 215, 4-[3-(4-chlorophenyl)-5-methoxybenzofuran-2-yl]-2-phenylthiazole], the melting point was 151.3 to 153.3 °C.
Compound `O=C(/C=C/c1ccccc1)Nc1c(Cl)oc2ccc(Br)cc12` [Example 180, (E)-N-(5-bromo-2-chlorobenzofuran-3-yl)-3-phenylacrylamide] has a melting point of 248.7 to 250.3 °C.
In the case of `N#C/C=C/C=C(\Cl)c1cc2cc(Br)ccc2o1` [Example 154, (2E,4Z)-5-(5-bromobenzofuran-2-yl)-5-chloropenta-2,4-dienenitrile], the melting point is reported as 179 to 185 °C.
In the case of `Cc1oncc1C(=O)Nc1c(C(=O)/C=C/c2ccccc2)oc2ccc(Br)cc12` [Example 173, (E)-5-methylisoxazole-4-carboxylic acid [5-bromo-2-(3-phenylacryloyl)benzofuran-3-yl]amide], the melting point is reported as 219.6 to 220.3 °C.
Work on `CCN(CC)C(=O)/C=C(/C)c1oc2ccc(Br)cc2c1C` [Example 153, (Z)-3-(5-bromo-3-methylbenzofuran-2-yl)-2-butenoic acid diethylamide] yielded a melting point of 60.1 to 62 °C.
In the case of `COc1cccc(NC(=O)c2oc3ccc(Br)cc3c2NC(=O)/C(C#N)=C(/C)O)c1` [Example 188, (Z)-5-bromo-3-(2-cyano-3-hydroxy-2-butenoylamino)benzofurane-2-carboxylic acid (3-methoxyphenyl)amide], the melting point is reported as 234.5 to 241.5 °C.
With `CCN(CC)C(=O)/C=C(\C)c1cc2c(Br)cc(Br)c(OCCCC(=O)O)c2o1` [Example 31, (E)-4-[4,6-dibromo-2-(2-diethylcarbamoyl-1-methylvinyl)benzofuran-7-yloxy]butyric acid] the melting point was 121 to 123 °C.
With `C/C(O)=C(/C#N)C(=O)NC(C)c1cc2cccc(OCC(=O)O)c2o1` (stereo not shown) [Example 127, (E)-{2-[1-(2-cyano-3-hydroxy-2-butenoylamino)ethyl]benzofuran-7-yloxy}acetic acid] the melting point was 169.9 to 173.2 °C.
In the case of `C/C(O)=C(\C#N)C(=O)Nc1c(C#N)oc2ccc(Br)cc12` [Example 104, (Z)-N-(5-bromo-2-cyanobenzofuran-3-yl)-2-cyano-3-hydroxy-2-butenamide], the melting point is reported as 206.3 to 208.3 °C.
`Cc1oncc1C(=O)Nc1c(C#N)oc2ccc(Br)cc12` [Example 85, N-(5-bromo-2-cyanobenzofuran-3-yl)-5-methylisoxazole-4-carboxamide] showed a melting point of 239.2 to 241.9 °C.
In the case of `C/C(O)=C(\C#N)C(=O)Nc1c(C(=O)O)oc2ccccc12` [Example 92, (Z)-3-(2-cyano-3-hydroxy-2-butenoylamino)benzofurane-2-carboxylic acid], the melting point is reported as 196.3 to 196.6 °C.
For `CC(=O)c1oc2ccccc2c1NC(=O)/C(C#N)=C(/C)O` [Example 66, (Z)-N-(2-acetylbenzofuran-3-yl)-2-cyano-3-hydroxy-2-butenamide], the melting point was 206.1 to 208.1 °C.
With `CCOC(=O)/C=C(\C)c1ccc2oc(/C(Cl)=C/C=C/C(=O)N3CCOCC3)cc2c1` [Example 148, Ethyl 3-[2-(1-chloro-5-morpholin-4-yl-5-oxo-penta-(1Z,3E)-1,3-dienyl)benzofuran-5-yl]-(E)-2-butenoate] the melting point was 194.6 to 196.5 °C.
Work on `C/C=C/C(=O)NC(C)c1cc2cccc(OCCCCl)c2o1` (stereo not shown) [Example 133, (E)-N-{1-[7-(3-chloropropoxy)benzofuran-2-yl]ethyl}-2-butenamide] yielded a melting point of 104.7 to 107.7 °C.
Work on `CCCCc1oc2ccccc2c1/C(C)=C/C(=O)NCCc1ccc(OC)c(OC)c1` [Example 157, (E)-3-(2-butylbenzofuran-3-yl)-2-butenoic acid [2-(3,4-dimethoxyphenyl)ethyl]amide] yielded a melting point of 95 to 99 °C.
Work on `CCN(CC)C(=O)/C=C(\C)c1cc(Cl)cc2cc(C(C)=O)oc12` [Example 170, (E)-3-(2-acetyl-5-chloro-benzofuran-7-yl)-2-butenoic acid diethylamide] yielded a melting point of 116 to 117.5 °C.
In the case of `C/C=C/C(=O)Nc1c(Cl)oc2ccc(Br)cc12` [Example 184, (E)-2-butenoic acid (5-bromo-2-chlorobenzofuran-3-yl)amide], the melting point is reported as 200 to 202 °C.
In the case of `Cc1oncc1C(=O)Nc1c(C(N)=O)oc2ccccc12` [Example 79, N-(2-carbamoylbenzofuran-3-yl)-5-methylisoxazole-4-carboxamide], the melting point is reported as 250.7 to 252.6 °C.
In the case of `Clc1ccc(-c2c(-c3csc(-c4ccccc4)n3)oc3c(Cl)cccc23)cc1` [Example 213, 4-[7-chloro-3-(4-chlorophenyl)benzofuran-2-yl]-2-phenylthiazole], the melting point is reported as 165.5 to 166 °C.
`COc1ccc(NC(=O)/C=C/C=C(\Cl)c2cc3cccc(OCCCCl)c3o2)cc1OC` [Example 53, (2E,4Z)-5-chloro-5-[7-(3-chloropropoxy)benzofuran-2-yl]penta-2,4-dienoic acid (3,4-dimethoxyphenyl)amide] gave a melting point of 167.5 to 169 °C.

— patent US7638540B2, “Benzofuran compound and medicinal composition containing the same” (The New Industry Research Organization, priority 2003, dated 2009)
